The source made the active and inactive calls. The rule behind the calls is not given here.
How the values were obtained:
HT-22 [1] = assay: Inhibition of glutamate-induced apoptosis in mouse HT-22 cells assessed as early apoptotic cells at 0.2 uM pretreated with glutamate for 2 hrs followed by incubation with compound for 8 hrs by Annexin-V FITC and propidium iodide staining based flow cytometric analysis (reference value: 71.33%); assay type: functional; design: scale not given: the % may be the effect or the level left
[2] = Antioxidant activity assessed as DPPH radical scavenging activity; assay type: functional
HT-22 [3] = assay: Neuroprotective activity against glutamate-induced cytotoxicity in mouse HT-22 cells assessed as increase in cell viability at 0.6 uM in presence of glutamate by calcein-AM dye/propidium iodide staining based microscopic analysis; assay type: functional
HT-22 [4] = assay: Inhibition of glutamate-induced apoptosis in mouse HT-22 cells assessed as late apoptotic cells at 0.2 uM pretreated with glutamate for 2 hrs followed by incubation with compound for 8 hrs by Annexin-V FITC and propidium iodide staining based flow cytometric analysis (reference value: 6.49%); assay type: functional; design: scale not given: the % may be the effect or the level left
HT-22 [5] = assay: Inhibition of glutamate-induced oxidative stress in mouse HT-22 cells assessed as reduction in intracellular ROS accumulation at 0.2 to 1.8 uM in presence of glutamate by FACS analysis; assay type: functional, cell-based; conditions: dose 0.2-1.8 µM
HT-22 [6] = assay: Inhibition of glutamate-induced apoptosis in mouse HT-22 cells assessed as early apoptotic cells at 1.85 uM pretreated with glutamate for 2 hrs followed by incubation with compound for 8 hrs by Annexin-V FITC and propidium iodide staining based flow cytometric analysis (reference value: 71.33%); assay type: functional; design: scale not given: the % may be the effect or the level left
HT-22 [7] = assay: Inhibition of glutamate-induced apoptosis in mouse HT-22 cells assessed as necrotic cells at 0.2 uM pretreated with glutamate for 2 hrs followed by incubation with compound for 8 hrs by Annexin-V FITC and propidium iodide staining based flow cytometric analysis (reference value: 0.79%); assay type: functional; design: scale not given: the % may be the effect or the level left
HT-22 [8] = assay: Inhibition of glutamate-induced apoptosis in mouse HT-22 cells assessed as viable cells at 0.2 uM pretreated with glutamate for 2 hrs followed by incubation with compound for 8 hrs by Annexin-V FITC and propidium iodide staining based flow cytometric analysis (reference value: 21.39%); assay type: functional; conditions: read-out: Activity
HT-22 [9] = assay: Inhibition of glutamate-induced apoptosis in mouse HT-22 cells assessed as necrotic cells at 1.85 uM pretreated with glutamate for 2 hrs followed by incubation with compound for 8 hrs by Annexin-V FITC and propidium iodide staining based flow cytometric analysis (reference value: 0.79%); assay type: functional; design: scale not given: the % may be the effect or the level left
HT-22 [10] = assay: Inhibition of glutamate-induced apoptosis in mouse HT-22 cells assessed as reduction in Bax protein level at 1 to 10 uM incubated for 10 hrs in presence of glutamate by Western blot analysis; assay type: functional, cell-based; conditions: dose 1-10 µM
HT-22 [11] = assay: Inhibition of glutamate-induced AIF nuclear translocation in mouse HT-22 cells assessed as decrease in translocation of AIF from mitochondria to nucleus at 1 to 10 uM in presence of glutamate by Western blot analysis; assay type: functional, cell-based; conditions: dose 1-10 µM
HT-22 [12] = assay: Inhibition of glutamate-induced apoptosis in mouse HT-22 cells assessed as increase in Bcl2 protein level at 1 to 10 uM incubated for 10 hrs in presence of glutamate by Western blot analysis; assay type: functional, cell-based; conditions: dose 1-10 µM
HT-22 [13] = assay: Neuroprotective activity against glutamate-induced cytotoxicity in mouse HT-22 cells assessed as reduction in cell death pretreated with glutamate followed by incubation with compound for 6 hrs and measured at 16 hrs post-glutamate treatment; assay type: functional, cell-based
HT-22 [14] = assay: Inhibition of glutamate-induced AIF nuclear translocation in mouse HT-22 cells assessed as decrease in translocation of AIF from mitochondria to nucleus in presence of glutamate by immunostaining analysis; assay type: functional, cell-based
[15] = Inhibition of glutamate-induced Ca2+ influx in mouse HT-22 cells assessed as reduction in intracellular Ca2+ concentration at 0.6 to 1.8 uM in presence of glutamate by Fluo3-AM staining based fluorescence microscopic method relative to control; assay type: functional; conditions: dose 0.6-1.8 µM
HT-22 [16] = assay: Inhibition of glutamate-induced ERK activation in mouse HT-22 cells assessed as reduction in phosphorylated ERK protein level at 1 to 10 uM in presence of glutamate by Western blot analysis; assay type: cell-based; conditions: dose 1-10 µM
[17] = molecular target: MAP kinase p38 (Mus musculus) (UniProt P47811+O08911+Q9WUI1+Q9Z1B7); assay: Inhibition of glutamate-induced p38 MAPK activation in mouse HT-22 cells assessed as reduction in phosphorylated p38 MAPK protein level at 1 to 10 uM in presence of glutamate by Western blot analysis; assay type: cell-based; conditions: dose 1-10 µM
[18] = molecular target: c-Jun N-terminal kinase (Mus musculus) (UniProt Q91Y86+Q9WTU6+Q61831); assay: Inhibition of glutamate-induced JNK activation in mouse HT-22 cells assessed as reduction in phosphorylated JNK protein level at 1 to 10 uM in presence of glutamate by Western blot analysis; assay type: cell-based; conditions: dose 1-10 µM
Sequence of c-Jun N-terminal kinase (Mus musculus) (Q61831 whole entry, looked up): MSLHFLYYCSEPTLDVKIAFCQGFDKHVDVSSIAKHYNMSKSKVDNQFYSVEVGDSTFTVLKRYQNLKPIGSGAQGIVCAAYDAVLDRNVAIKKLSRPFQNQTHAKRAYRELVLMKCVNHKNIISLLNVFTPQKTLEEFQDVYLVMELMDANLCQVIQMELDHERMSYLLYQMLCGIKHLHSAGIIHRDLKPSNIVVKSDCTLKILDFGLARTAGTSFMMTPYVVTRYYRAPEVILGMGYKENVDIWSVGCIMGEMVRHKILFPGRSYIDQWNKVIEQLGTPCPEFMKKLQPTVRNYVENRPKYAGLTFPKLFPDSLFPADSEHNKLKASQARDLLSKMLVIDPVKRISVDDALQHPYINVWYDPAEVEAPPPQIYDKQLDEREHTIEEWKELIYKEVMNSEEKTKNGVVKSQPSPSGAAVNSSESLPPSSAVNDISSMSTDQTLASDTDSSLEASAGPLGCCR
Sequence of c-Jun N-terminal kinase (Mus musculus) (Q91Y86 whole entry, looked up): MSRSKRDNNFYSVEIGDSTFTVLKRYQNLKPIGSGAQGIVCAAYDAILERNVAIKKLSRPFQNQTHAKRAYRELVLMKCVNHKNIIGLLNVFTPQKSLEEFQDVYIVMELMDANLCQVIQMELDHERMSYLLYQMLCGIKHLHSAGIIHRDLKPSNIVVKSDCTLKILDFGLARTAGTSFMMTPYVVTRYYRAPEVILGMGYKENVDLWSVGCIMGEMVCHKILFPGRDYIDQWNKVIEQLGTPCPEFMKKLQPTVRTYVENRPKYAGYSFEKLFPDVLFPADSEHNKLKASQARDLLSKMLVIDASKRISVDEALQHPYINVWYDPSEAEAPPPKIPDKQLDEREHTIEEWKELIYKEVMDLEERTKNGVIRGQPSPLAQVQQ
Sequence of c-Jun N-terminal kinase (Mus musculus) (Q9WTU6 whole entry, looked up): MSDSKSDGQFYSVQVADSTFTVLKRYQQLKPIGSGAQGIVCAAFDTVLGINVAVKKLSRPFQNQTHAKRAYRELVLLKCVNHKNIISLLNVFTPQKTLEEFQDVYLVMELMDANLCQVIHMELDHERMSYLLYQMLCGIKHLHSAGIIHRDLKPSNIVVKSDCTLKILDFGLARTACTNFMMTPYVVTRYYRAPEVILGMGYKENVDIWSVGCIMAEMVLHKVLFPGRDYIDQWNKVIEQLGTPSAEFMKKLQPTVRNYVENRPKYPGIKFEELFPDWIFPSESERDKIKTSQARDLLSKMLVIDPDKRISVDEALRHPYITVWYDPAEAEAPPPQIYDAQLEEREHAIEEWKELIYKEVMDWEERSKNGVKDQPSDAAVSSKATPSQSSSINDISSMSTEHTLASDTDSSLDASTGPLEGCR

HT-22 [19] = assay: Inhibition of glutamate-induced apoptosis in mouse HT-22 cells assessed as viable cells at 1.85 uM pretreated with glutamate for 2 hrs followed by incubation with compound for 8 hrs by Annexin-V FITC and propidium iodide staining based flow cytometric analysis (reference value: 21.39%); assay type: functional; conditions: read-out: Activity
HT-22 [20] = assay: Inhibition of glutamate-induced Ca2+ influx in mouse HT-22 cells assessed as reduction in intracellular Ca2+ concentration in presence of glutamate by Fluo3-AM staining based fluorescence microscopic method; assay type: functional, cell-based; conditions: dose 0.6-1.8 µM
HT-22 [21] = assay: Inhibition of glutamate-induced apoptosis in mouse HT-22 cells assessed as late apoptotic cells at 1.85 uM pretreated with glutamate for 2 hrs followed by incubation with compound for 8 hrs by Annexin-V FITC and propidium iodide staining based flow cytometric analysis (reference value: 6.49%); assay type: functional; design: scale not given: the % may be the effect or the level left
HT-22 [22] = assay: Neuroprotective activity against glutamate-induced cytotoxicity in mouse HT-22 cells assessed as reduction in cell death pretreated with glutamate followed by incubation with compound for 8 hrs and measured at 16 hrs post-glutamate treatment; assay type: functional, cell-based
HT-22 [23] = assay: Neuroprotective activity against glutamate-induced cytotoxicity in mouse HT-22 cells assessed as reduction in cell death and morphological changes at 0.6 to 1.8 uM incubated for 12 hrs in presence of glutamate by phase contrast microscopic analysis; assay type: functional, cell-based; conditions: dose 0.6-1.8 µM
HT-22 [24] = assay: Inhibition of glutamate-induced oxidative stress in mouse HT-22 cells assessed as reduction in intracellular ROS accumulation at 0.2 to 3.6 uM in presence of glutamate by DCF-DA staining based fluorescence microscopic analysis; assay type: functional, cell-based; conditions: dose 0.2-3.6 µM
HT-22 [25] = assay: Neuroprotective activity against glutamate-induced cytotoxicity in mouse HT-22 cells assessed as increase in cell viability at 1.85 to 5.5 uM in presence of glutamate by calcein-AM dye/propidium iodide staining based microscopic analysis; assay type: functional; conditions: dose 1.85-5.5 µM
RGC-5 = assay: Cytoprotective activity against glutamate-induced cytotoxicity in rat RGC-5 cells assessed as reduction in cell death; assay type: functional, cell-based

## CCCCCCCc1[nH]c2ccccc2c(=O)c1O
HT-22 [1]
  Activity: 55.26%
[2]
  Activity: Dose-Dependent Effect
HT-22 [3]
  Activity: Active
HT-22 [4]
  Activity: 5.51%
HT-22 [5]
  inhibition: Active
HT-22 [6]
  Activity: 0.44%
HT-22 [7]
  Activity: 1.74%
HT-22 [8]
  viability at 0.2 µM: 37.5%
HT-22 [9]
  Activity: 0.44%
HT-22 [10]
  inhibition: Active
HT-22 [11]
  inhibition: Active
HT-22 [12]
  inhibition: Active
HT-22 [13]
  Activity: Active
HT-22 [14]
  inhibition: Active
[15]
  fold change (FC): 0.98
HT-22 [16]
  inhibition: Active
[17]
  inhibition: Active
[18]
  inhibition: Active
HT-22 [19]
  viability at 1.85 µM: 98.1%
HT-22 [20]
  inhibition: Dose-Dependent Effect
HT-22 [21]
  Activity: 1.06%
HT-22 [22]
  Activity: inactive
HT-22 [23]
  Activity: Active
HT-22 [24]
  inhibition: Active
HT-22 [25]
  Activity: inactive
RGC-5
  Activity: Active

— ChEMBL document CHEMBL4808230, “Neuroprotective effects of 2-heptyl-3-hydroxy-4-quinolone in HT22 mouse hippocampal neuronal cells” (2021)
